Structures can show the parent of a compound that is named as a salt.
The compounds below were run against T1, PRS (prolyl-tRNA synthetase) (Homo sapiens, UniProt P07814) (assay: In vitro PRS enzyme activity inhibition experiment ([3H]proline, liquid scintillation)). Settings: purified PRS protein subcloned from EPRS cDNA; 37° C., 5 to 10 minutes; read-out: PRS IC50.
T1 construct: the portion corresponding to PRS in cDNA of EPRS was subcloned; made in house
T1 sequence (P07814 1007-1512 limits assumed): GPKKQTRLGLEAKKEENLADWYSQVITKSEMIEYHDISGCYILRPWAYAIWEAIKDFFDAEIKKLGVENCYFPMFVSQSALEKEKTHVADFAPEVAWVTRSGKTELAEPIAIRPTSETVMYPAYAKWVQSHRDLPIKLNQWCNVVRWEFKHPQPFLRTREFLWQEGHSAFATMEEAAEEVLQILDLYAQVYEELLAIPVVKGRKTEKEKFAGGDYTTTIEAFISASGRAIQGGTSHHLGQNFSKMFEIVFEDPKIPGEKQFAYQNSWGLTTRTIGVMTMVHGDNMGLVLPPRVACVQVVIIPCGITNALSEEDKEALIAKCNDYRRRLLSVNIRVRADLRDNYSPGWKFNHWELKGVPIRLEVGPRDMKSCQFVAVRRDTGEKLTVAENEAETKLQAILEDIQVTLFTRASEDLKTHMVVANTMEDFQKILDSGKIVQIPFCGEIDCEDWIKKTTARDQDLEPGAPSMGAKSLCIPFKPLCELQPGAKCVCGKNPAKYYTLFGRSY
Type: biochemical
Experimental: In order to confirm the biological activities of the compounds prepared in Examples, % inhibition or IC50 values of PRS enzyme ([…]) activities were calculated.
Specifically, the portion corresponding to PRS in cDNA of EPRS was subcloned, and the obtained high-purity PRS protein was purified and used in the experiment. The compounds (1 μM) prepared in Examples were added into the reaction buffer (20 mM KPO4 (pH 7.4), 6 mM MgAc, 5 mM ATP, […] tRNA, 0.5 mM DTT, 20 mCi[^3H]proline (1 mCi/mL)) and allowed to react at 37° C. for 5 to 10 minutes. The reaction was terminated with 3M paper that was previously dried by addition of 5% TCA. The radioactivity was measured using a liquid scintillation counter.
IC50 values of the respective compounds were calculated and analyzed using Microsoft Excel or Sigma Plot 8.0. In Table 1, the results are divided into A, B and C according to the range of IC50. The case where the derived IC50 is 100 nM or less is represented by “A”, the case where the IC50 is 100 to 500 nM is represented by “B”, and the case where the IC50 is 500 nM or higher is represented by “C”.

SMILES	IC50 [nM]
Cc1ccc2c(ncn2CC(O)C[C@H]2NCCC[C@@H]2O)c1Br (stereo partly drawn) [Example 73, (2R,3S)-2-(3-(4-bromo-5-methyl-1H-benzo[d]imidazol-1-yl)-2-hydroxypropyl)piperidin-3-ol]	> 500
O=C(C[C@H]1NCCC[C@@H]1O)Cn1cnc2c(Cl)ncnc21 [Example 44, 1-(6-chloro-9H-purin-9-yl)-3-((2R,3S)-3-hydroxypiperidin-2-yl)propan-2-one hydrochloride salt]	> 500
Cc1c(Cl)ccc2c1ncn2CC(O)C[C@H]1NCCC[C@@H]1O (stereo partly drawn) [Example 76, (2R,3S)-2-(3-(5-chloro-4-methyl-1H-benzo[d]imidazol-1-yl)-2-hydroxypropyl)piperidin-3-ol]	> 500
OC(C[C@H]1NCCC[C@@H]1O)Cn1cnc2c(F)c(Br)ccc21 (stereo partly drawn) [Example 74, (2R,3S)-2-(3-(5-bromo-4-fluoro-1H-benzo[d]imidazol-1-yl)-2-hydroxypropyl)piperidin-3-ol]	> 500
O=C(C[C@H]1NCCC[C@@H]1O)Cn1ncc2cc(Cl)ccc21 [Example 96, 1-(5-chloro-1H-indazol-1-yl)-3-((2R,3S)-3-hydroxypiperidin-2-yl)propan-2-one]	> 500
O=C(C[C@H]1NCCC[C@@H]1O)Cn1ncc2cc(Cl)cnc21 [Example 98, 1-(5-chloro-1H-pyrazolo[3,4-b]pyridin-1-yl)-3-((2R,3S)-3-hydroxypiperidin-2-yl)propan-2-one]	> 500
OC(C[C@H]1NCCC[C@@H]1O)Cn1cnc2c(C(F)(F)F)c(Br)ccc21 (stereo partly drawn) [Example 72, (2R,3S)-2-(3-(5-bromo-4-(trifluoromethyl)-1H-benzo[d]imidazol-1-yl)-2-hydroxypropyl)piperidin-3-ol]	> 500
C[C@@H](O)c1nc2ccccc2n1CC(=O)C[C@H]1NCCC[C@@H]1O [Example 54, 1-(2-((R)-1-hydroxyethyl)-1H-benzo[d]imidazol-1-yl)-3-((2R,3S)-3-hydroxypiperidin-2-yl)propan-2-one]	> 500
OC(C[C@H]1NCCC[C@@H]1O)Cn1cnc2c(Cl)c(Cl)ccc21 (stereo partly drawn) [Example 75, (2R,3S)-2-(3-(4,5-dichloro-1H-benzo[d]imidazol-1-yl)-2-hydroxypropyl)piperidin-3-ol]	> 500
CO/N=C(/C[C@H]1NCCC[C@@H]1O)Cn1cnc2cc(Cl)c(Cl)cc21 [Example 67, 1-(5,6-dichloro-1H-benzo[d]imidazol-1-yl)-3-((2R,3S)-3-hydroxypiperidin-2-yl)propan-2-one O-methyl oxime]	> 500
OCc1nc2cc(Cl)c(Cl)cc2n1C/C(C[C@H]1NCCC[C@@H]1O)=N/O [Example 65, 1-(5,6-dichloro-2-(hydroxymethyl)-1H-benzo[d]imidazol-1-yl)-3-((2R,3S)-3-hydroxypiperidin-2-yl)propan-2-one oxime]	> 500
CNC(C[C@H]1NCCC[C@@H]1O)Cn1cnc2cc(Cl)c(Cl)cc21 (stereo partly drawn) [Example 86, (2R,3S)-2-(3-(5,6-dichloro-1H-benzo[d]imidazol-1-yl)-2-(methylamino)propyl)piperidin-3-ol]	> 500
COCc1nc2cc(Cl)c(Cl)cc2n1CC(=O)C[C@H]1NCCC[C@@H]1O [Example 63, 1-(5,6-dichloro-2-(methoxymethyl)-1H-benzo[d]imidazol-1-yl)-3-((2R,3S)-3-hydroxypiperidin-2-yl)propan-2-one]	> 500
Cc1nc2c(F)c(F)ccc2n1CC(=O)C[C@H]1NCCC[C@@H]1O [Example 47, 1-(4,5-difluoro-2-methyl-1H-benzo[d]imidazol-1-yl)-3-((2R,3S)-3-hydroxypiperidin-2-yl)propan-2-one]	> 500
Cc1nc2ncccc2n1CC(=O)C[C@H]1NCCC[C@@H]1O [Example 49, 1-((2R,3S)-3-hydroxypiperidin-2-yl)-3-(2-methyl-1H-imidazo[4,5-b]pyridin-1-yl)propan-2-one]	> 500
O=C(C[C@H]1NCCC[C@@H]1O)Cn1cnc2ncc(Br)cc21 [Example 31, 1-(6-bromo-1H-imidazo[4,5-b]pyridin-1-yl)-3-((2R,3S)-3-hydroxypiperidin-2-yl)propan-2-one]	> 500

The remaining lines, values ahead:

IC50 [nM]	SMILES
> 500	C[C@H](O)c1nc2ccccc2n1CC(=O)C[C@H]1NCCC[C@@H]1O [Example 55, 1-(2-((S)-1-hydroxyethyl)-1H-benzo[d]imidazol-1-yl)-3-((2R,3S)-3-hydroxypiperidin-2-yl)propan-2-one]
> 500	Cc1c(Br)ccc2c1ncn2CC(O)(C[C@H]1NCCC[C@@H]1O)C(F)(F)F (stereo partly drawn) [Example 85, (2R,3S)-2-(2-((5-bromo-4-methyl-1H-benzo[d]imidazol-1-yl)methyl)-3,3,3-trifluoro-2-hydroxypropyl)piperidin-3-ol]
> 500	O=C(C[C@H]1NCCC[C@@H]1O)Cn1c(CCO)nc2ccc(F)cc21 [Example 53, 1-(6-fluoro-2-(2-hydroxyethyl)-1H-benzo[d]imidazol-1-yl)-3-((2R,3S)-3-hydroxypiperidin-2-yl)propan-2-one]
100 to 500	OC(C[C@H]1NCCC[C@@H]1O)Cn1cnc2c(Cl)c(Br)cnc21 (stereo partly drawn) [Example 79, (2R,3S)-2-(3-(6-bromo-7-chloro-3H-imidazo[4,5-b]pyridin-3-yl)-2-hydroxypropyl)piperidin-3-ol]
100 to 500	O=C(C[C@H]1NCCC[C@@H]1O)Cn1c(CO)nc2ncccc21 [Example 68, 1-(2-(hydroxymethyl)-1H-imidazo[4,5-b]pyridin-1-yl)-3-((2R,3S)-3-hydroxypiperidin-2-yl)propan-2-one]
> 500	O=C(C[C@H]1NCCC[C@@H]1O)Cn1cnc2cc(C(=O)O)ncc21 [Example 43, 3-(3-((2R,3S)-3-hydroxypiperidin-2-yl)-2-oxopropyl)-3H-imidazo[4,5-c]pyridine-6-carboxylic acid hydrochloride salt]
> 500	Cc1c(Cl)cnc2c1ncn2CC(O)C[C@H]1NCCC[C@@H]1O (stereo partly drawn) [Example 77, (2R,3S)-2-(3-(6-chloro-7-methyl-3H-imidazo[4,5-b]pyridin-3-yl)-2-hydroxypropyl)piperidin-3-ol]
> 500	O=C(C[C@H]1NCCC[C@@H]1O)Cn1cnc2nc(Br)ccc21 [Example 29, 1-(5-bromo-1H-imidazo[4,5-b]pyridin-1-yl)-3-((2R,3S)-3-hydroxypiperidin-2-yl)propan-2-one]
100 to 500	O=C(C[C@H]1NCCC[C@@H]1O)Cn1cnc2c1CCCC2 [Example 45, 1-((2R,3S)-3-hydroxypiperidin-2-yl)-3-(4,5,6,7-tetrahydro-1H-benzo[d]imidazol-1-yl)propan-2-one]
100 to 500	O=C(C[C@H]1NCCC[C@@H]1O)Cn1ccc2cc(Cl)cnc21 [Example 91, 1-(5-chloro-1H-pyrrolo[2,3-b]pyridin-1-yl)-3-((2R,3S)-3-hydroxypiperidin-2-yl)propan-2-one]
100 to 500	Cc1ccc2c(cnn2CC(=O)C[C@H]2NCCC[C@@H]2O)c1Br [Example 97, 1-(4-bromo-5-methyl-1H-indazol-1-yl)-3-((2R,3S)-3-hydroxypiperidin-2-yl)propan-2-one]
< 100	O=C(C[C@H]1NCCC[C@@H]1O)Cn1cnc2c(Cl)cc(Cl)nc21 [Example 41, 1-(5,7-dichloro-3H-imidazo[4,5-b]pyridin-3-yl)-3-((2R,3S)-3-hydroxypiperidin-2-yl)propan-2-one]

Source: patent publication US10081634B2, “Heterocyclic compound” (Daewoong Pharmaceutical Co., Ltd., priority 2014, dated 2018)
